Reference: article PMC6764326, “The Trials and Tribulations of Structure Assisted Design of KCa Channel Activators” (Frontiers in Pharmacology, 2019)

test system: not given; assay: not given; set-up: method as in Coleman et al., 2014; conditions: mice; ref Coleman et al., 2014; cited from earlier work

SMILES	KCa2 channel mediated side effects on CNS and heart rate
Cc1cc2sc(N)nc2c2ccccc12 [SKA-111, 5-methylnaphtho[1,2-d]thiazol-2-amine]	avoiding KCa2 channel mediated side effects on the CNS and on heart rate
Cc1cc2nc(N)oc2c2ccccc12 [SKA-121, 5-methylnaphtho[2,1-d]oxazol-2-amine]	avoiding KCa2 channel mediated side effects on the CNS and on heart rate

same assay, conditions: normotensive and hypertensive mice; ref Coleman et al., 2014; cited from earlier work

SMILES	Blood pressure lowering
Cc1cc2sc(N)nc2c2ccccc12 [SKA-111, 5-methylnaphtho[1,2-d]thiazol-2-amine]	efficacious in lowering blood pressure
Cc1cc2nc(N)oc2c2ccccc12 [SKA-121, 5-methylnaphtho[2,1-d]oxazol-2-amine]	efficacious in lowering blood pressure

target: T1, KCa3.1 (Homo sapiens, UniProt O15554+P0DP23); assay: QPatch automated whole-cell patch-clamp screen, 10 µM activator normalized to 10 µM SKA-31; assay type: cell-based; conditions: 250 nM free internal Ca2+, HEK cells stably expressing channel
T1 construct: expressed in transfected cells
Procedure: (§1) All experiments were performed in either the inside-out or the whole-cell configuration of the patch-clamp technique on either transiently transfected CHO cells or Human Embryonic Kidney (HEK) cell lines stably expressing hKCa3.1 or hKCa2.2 ([Sankaranarayanan et al., 2009]). All cells were cultured in Dulbecco’s modified Eagle’s medium supplemented with 10% fetal calf serum. Wild-type (WT) and mutant hKCa3.1 channel constructs were transfected using FuGENE 6 transfection reagent (Promega, Madison, WI) in OptiMEM reduced-serum medium (Life Technologies, Benicia, CA) for manual patch-clamp experiments or via electroporation (Nucleofector 2b and Lonza Amaxa Cell Line Nucleofector Kit T) according to the manufacturer’s instructions for automated electrophysiology.
(§2) The procedure for performing automated whole-cell KCa channel recordings on a QPatch-16 automated electrophysiology platform (Sophion Biosciences) was previously described in detail by our laboratory ([Jenkins et al., 2013]). For the current study we used the solutions described above with disposable 16-channel planar patch chip plates (QPlates; patch hole diameter […], resistance 2.00–0.02MΩ, Sophion Biosciences, Woburn, MA). Cell positioning and sealing parameters were set as follows: positioning pressure -70 mbar, resistance increase for success 750%, minimum seal resistance 0.1 GΩ, holding potential -0 mV, holding pressure -20 mbar. To avoid rejection of cells with large KCa3.1 currents, the minimum seal resistance for whole-cell requirement was lowered to 0.001 GΩ. Access was obtained with the following sequence: 1) suction pulses in 29 mbar increments from -250 mbar to -453 mbar; 2) a suction ramp of an amplitude of -450 mbar; 3) -400 mV voltage zaps of 1 ms duration. Following establishment of the whole-cell configuration, cells were held at -80 mV and KCa currents elicited by a voltage protocol that held at -80 mV for 20 ms, stepped to -120 mV for 20 ms, ramped from -120 to + 40 mV in 200 ms, and then stepped back to -120 mV for 20 ms. This pulse protocol was applied every 10 s. KCa activator dilutions were prepared freshly (within 5 min of the initiation of the QPatch) with Ringer’s solution from 10 mM stock solutions in dry DMSO. Final DMSO concentrations never exceeded 1%. Glass vial inserts (to avoid adsorption) were filled with 400 µL of compound solution and placed into the insert base plate for use in the QPatch assay. Exemplary QPatch raw current traces and plots of slope conductance versus time are shown in Supplementary Figure 3 . For each compound we typically used 12 consecutive liquid periods Break-in, 3 saline additions to stabilize the current, 2 additions of test compound at 10 µM, 2 saline washes, 2 additions of SKA-31 at 10 µM, followed by 2 more saline washes. In each liquid period 10 pulse protocols were run.
(§3) The newly synthesized compounds were tested by automated whole-cell patch-clamp for their ability to activate KCa2.2 and KCa3.1 channels stably expressed in HEK cells. […] A promising compound would ideally do both. […] We started by comparing the effect of the SKA-74 derivatives to SKA-31 ( Figure 4A ).
(§4) Figure 4 Whole-cell KCa3.1 and KCa2.2 responses elicited by 10 µM of activator and normalized to 10 µM of the mixed activator SKA-31. Experiments were performed by automated electrophysiology with 250 nM of free internal Ca^2+. In each experiment the new activator was tested first, washed out with 2 saline additions, and then SKA-31 was applied as positive control for normalization of the response. (A) Screening of SKA-74 derivatives. (B) Screening of SKA-75 and SKA-76 derivatives. The bar graphs show means ± SD of the slope conductance measured between −85 and −65 mV (n = 2–7 cells). Chemical structures are shown below the bar graphs.
(§5) Figure 5 Whole-cell KCa3.1 and KCa2.2 responses elicited by 10 µM of activator and normalized to 10 µM of the mixed activator SKA-31. […]

SMILES	Whole-cell KCa3.1 response elicited by 10 µM of activator normalized to 10 µM SKA-31 (described in words)
Cc1nc2c(cc(C#N)c3ccccc32)o1 [SKA-135, 2-Methylnaphtho[1,2-d]oxazole-5-carbonitrile]	inactive
c1ccc(Nc2nc3c(ccc4ccccc43)s2)cc1 [SKA-146, N-Phenylnaphtho[1,2-d]thiazol-2-amine]	less potent than SKA-31
CNc1nc2c(ccc3ccccc32)s1 [SKA-158, N-Methylnaphtho[1,2-d]thiazol-2-amine]	preserved it again on KCa3.1
Cc1ccc2cccc(-c3csc(N)n3)c2c1 [SKA-193, 4-(7-Methylnaphthalen-1-yl)thiazol-2-amine]	somewhat increased KCa channel activating potency
Cc1ccc2cc(-c3csc(N)n3)ccc2c1 [SKA-198, 4-(6-Methylnaphthalen-2-yl)thiazol-2-amine]	somewhat increased KCa channel activating potency
Cc1nc2c(ccc3c([N+](=O)[O-])cccc32)s1 [SKA-215, 2-Methyl-6-nitronaphtho[1,2-d]thiazole]	inactive
Nc1nc(-c2ccc(-c3csc(N)n3)cc2)cs1 [SKA-230, 4,4'-(1,4-Phenylene)bis(thiazol-2-amine)]	completely devoid of activity
FC(F)(F)c1cccc(Nc2nc(-c3cccc4ccccc34)cs2)c1 [SKA-251, 4-(Naphthalen-1-yl)-N-(3-(trifluoromethyl)phenyl)thiazol-2-amine]	completely abolished activity
c1ccc(Nc2nc(-c3cccc4ccccc34)cs2)nc1 [SKA-258, 4-(Naphthalen-1-yl)-N-(pyridin-2-yl)thiazol-2-amine]	completely abolished activity
Cc1ccc(-c2csc(Nc3cccc(C(F)(F)F)c3)n2)cc1 [SKA-260, 4-(p-Tolyl)-N-(3-(trifluoromethyl)phenyl)thiazol-2-amine]	completely devoid of activity
c1ccc(-c2csc(Nc3ccccn3)n2)cc1 [SKA-265, 4-Phenyl-N-(pyridin-2-yl)thiazol-2-amine]	completely devoid of activity
FC(F)(F)c1ccc(Nc2nc(-c3ccccc3)cs2)cc1 [SKA-268, 4-Phenyl-N-(4-(trifluoromethyl)phenyl)thiazol-2-amine]	completely devoid of activity
Nc1nc2c(cc([N+](=O)[O-])c3ccccc32)s1 [SKA-321, 5-Nitronaphtho[1,2-d]thiazol-2-amine]	drastically reduced potency
CCN(CC)c1cc2sc(N)nc2c2ccccc12 [SKA-330, N^5,N^5-Diethylnaphtho[1,2-d]thiazole-2,5-diamine]	somewhat reduced potency

same assay, conditions: KCa3.1 versus KCa2.2, 250 nM free Ca2+

SMILES	Selectivity between KCa3.1 and KCa2.2 in the 10 µM screen
Cc1nc2c(cc(Br)c3ccccc32)o1 [SKA-133, 5-Bromo-2-methylnaphtho[1,2-d]oxazole]	preserved selectivity for KCa3.1

target: T2, KCa2.2 (Homo sapiens, UniProt P0DP23+Q9H2S1); assay: as above; assay type: cell-based; conditions: 250 nM free internal Ca2+, HEK cells stably expressing channel
T2 construct: expressed in transfected cells
Procedure: as §1, §2, §3, §4, §5

SMILES	Whole-cell KCa2.2 response elicited by 10 µM of activator normalized to 10 µM SKA-31 (described in words)
Cc1nc2c(cc(Br)c3ccccc32)o1 [SKA-133, 5-Bromo-2-methylnaphtho[1,2-d]oxazole]	decreased activity
Cc1nc2c(cc(C#N)c3ccccc32)o1 [SKA-135, 2-Methylnaphtho[1,2-d]oxazole-5-carbonitrile]	inactive
c1ccc(Nc2nc3c(ccc4ccccc43)s2)cc1 [SKA-146, N-Phenylnaphtho[1,2-d]thiazol-2-amine]	less potent than SKA-31
CNc1nc2c(ccc3ccccc32)s1 [SKA-158, N-Methylnaphtho[1,2-d]thiazol-2-amine]	abolished activity on KCa2.2
Cc1ccc2cccc(-c3csc(N)n3)c2c1 [SKA-193, 4-(7-Methylnaphthalen-1-yl)thiazol-2-amine]	somewhat increased KCa channel activating potency
Cc1ccc2cc(-c3csc(N)n3)ccc2c1 [SKA-198, 4-(6-Methylnaphthalen-2-yl)thiazol-2-amine]	somewhat increased KCa channel activating potency
Cc1nc2c(ccc3c([N+](=O)[O-])cccc32)s1 [SKA-215, 2-Methyl-6-nitronaphtho[1,2-d]thiazole]	inactive
Nc1nc(-c2ccc(-c3csc(N)n3)cc2)cs1 [SKA-230, 4,4'-(1,4-Phenylene)bis(thiazol-2-amine)]	completely devoid of activity
FC(F)(F)c1cccc(Nc2nc(-c3cccc4ccccc34)cs2)c1 [SKA-251, 4-(Naphthalen-1-yl)-N-(3-(trifluoromethyl)phenyl)thiazol-2-amine]	completely abolished activity
c1ccc(Nc2nc(-c3cccc4ccccc34)cs2)nc1 [SKA-258, 4-(Naphthalen-1-yl)-N-(pyridin-2-yl)thiazol-2-amine]	completely abolished activity
Cc1ccc(-c2csc(Nc3cccc(C(F)(F)F)c3)n2)cc1 [SKA-260, 4-(p-Tolyl)-N-(3-(trifluoromethyl)phenyl)thiazol-2-amine]	completely devoid of activity
c1ccc(-c2csc(Nc3ccccn3)n2)cc1 [SKA-265, 4-Phenyl-N-(pyridin-2-yl)thiazol-2-amine]	completely devoid of activity
FC(F)(F)c1ccc(Nc2nc(-c3ccccc3)cs2)cc1 [SKA-268, 4-Phenyl-N-(4-(trifluoromethyl)phenyl)thiazol-2-amine]	completely devoid of activity
Nc1nc2c(cc([N+](=O)[O-])c3ccccc32)s1 [SKA-321, 5-Nitronaphtho[1,2-d]thiazol-2-amine]	drastically reduced potency
CCN(CC)c1cc2sc(N)nc2c2ccccc12 [SKA-330, N^5,N^5-Diethylnaphtho[1,2-d]thiazole-2,5-diamine]	somewhat reduced potency

test system: not given; assay: not given; conditions: not given

SMILES	melting point [°C]
Cc1nc2c(cc(Br)c3ccccc32)o1 [SKA-133, 5-Bromo-2-methylnaphtho[1,2-d]oxazole]	101 to 102
Cc1nc2c(cc(C#N)c3ccccc32)o1 [SKA-135, 2-Methylnaphtho[1,2-d]oxazole-5-carbonitrile]	145 to 146
c1ccc(Nc2nc3c(ccc4ccccc43)s2)cc1 [SKA-146, N-Phenylnaphtho[1,2-d]thiazol-2-amine]	140 to 141
CNc1nc2c(ccc3ccccc32)s1 [SKA-158, N-Methylnaphtho[1,2-d]thiazol-2-amine]	187 to 188
Cc1ccc2cccc(-c3csc(N)n3)c2c1 [SKA-193, 4-(7-Methylnaphthalen-1-yl)thiazol-2-amine]	154 to 156
Cc1ccc2cc(-c3csc(N)n3)ccc2c1 [SKA-198, 4-(6-Methylnaphthalen-2-yl)thiazol-2-amine]	178 to 179
Cc1nc2c(ccc3c([N+](=O)[O-])cccc32)s1 [SKA-215, 2-Methyl-6-nitronaphtho[1,2-d]thiazole]	178 to 179
Nc1nc(-c2ccc(-c3csc(N)n3)cc2)cs1 [SKA-230, 4,4'-(1,4-Phenylene)bis(thiazol-2-amine)]	350
FC(F)(F)c1cccc(Nc2nc(-c3cccc4ccccc34)cs2)c1 [SKA-251, 4-(Naphthalen-1-yl)-N-(3-(trifluoromethyl)phenyl)thiazol-2-amine]	135
c1ccc(Nc2nc(-c3cccc4ccccc34)cs2)nc1 [SKA-258, 4-(Naphthalen-1-yl)-N-(pyridin-2-yl)thiazol-2-amine]	225
Cc1ccc(-c2csc(Nc3cccc(C(F)(F)F)c3)n2)cc1 [SKA-260, 4-(p-Tolyl)-N-(3-(trifluoromethyl)phenyl)thiazol-2-amine]	108
FC(F)(F)c1ccc(Nc2nc(-c3ccccc3)cs2)cc1 [SKA-268, 4-Phenyl-N-(4-(trifluoromethyl)phenyl)thiazol-2-amine]	153
Nc1nc2c(cc([N+](=O)[O-])c3ccccc32)s1 [SKA-321, 5-Nitronaphtho[1,2-d]thiazol-2-amine]	289 to 291
CCN(CC)c1cc2sc(N)nc2c2ccccc12 [SKA-330, N^5,N^5-Diethylnaphtho[1,2-d]thiazole-2,5-diamine]	119 to 121

test system: KCa3.1 over KCa2 channels; assay: not given; conditions: second generation activators; ref Coleman et al., 2014; cited from earlier work

SMILES	Selectivity for KCa3.1
Cc1cc2nc(N)oc2c2ccccc12 [SKA-121, 5-methylnaphtho[2,1-d]oxazol-2-amine]	40–100 fold
